The values that follow come from patent publication US20220289788A1, “3-HYDROXY-5-PREGNANE-20-ONE DERIVATIVE AND USE THEREOF” (priority 2019, published 2022).

Data set [1] in a line: Pharmacokinetic testing after single oral administration, allopregnanolone detected in plasma. Type of data set: in vivo. The settings on record: male SD rats, i.g. 20 mg/kg (as allopregnanolone). From the text:
The object of this experiment is to study the single oral administration of each compound solution of the present invention, and an allopregnanolone solution, to detect allopregnanolone, an active ingredient in plasma, and to evaluate its pharmacokinetic (PK) properties in SD rats. The solution was to dissolve each compound in an aqueous solution containing 5% Tween 20.
The male SD rats used in this embodiment, weighing 180-220 g, were purchased from Shanghai SLAC Laboratory Animal Co., Ltd. All animals were fasted overnight, until 4 hours after administration.
The experimental SD rats were grouped by randomized block design, and 5 rats in each group, namely allopregnanolone group, compound 1 hydrochloride group, compound 2 hydrochloride group, compound 14 hydrochloride group, and compound 15 hydrochloride group. Each group was administered by irrigation (i.g.) at a dose of 20 mg/kg (as measured by allopregnanolone).
0.0833 h, 0.25 h, 0.5 h, 1 h, 2 h, 3 h, 4 h, 6 h, 9 h, 12 h, 24 h after the administration, about 0.6 mL of blood sample was collected from peripheral veins and transferred to a commercial centrifuge tube containing 0.85 to 1.15 mg of K2 EDTA anticoagulant (Jiangsu Kangjian Medical Products Co., Ltd.). Within 30 minutes after blood collection, plasma was centrifuged (centrifugation at 3,000 g for 10 minutes at approximately 4° C.). The plasma was placed in a labeled polypropylene tube, quick-frozen in dry ice, then stored in an ultra-low temperature freezer at −60° C. or lower for testing. LC-MS/MS bioassay was used to detect the concentration of drug in SD rat plasma. Blood concentration-time data was analyzed using a non-compartment model and a WinNonlin software package (version6.3 or later), as shown in Table-3.

For data set [2] the following is noted: cited from earlier work.
A short description of data set [3]: Stability of compound in 5% glucose solution (HPLC purity over time). Type of data set: physicochemical. The settings on record: about 1 mg/g, room temperature. How it is done: An appropriate amount of the derivative of the present invention was weighed respectively, dissolved in a 5% glucose solution and prepared into a solution with a concentration of about 1 mg/g.
(1) Blank solution: Methanol.
(2) Sample solution: A suitable solution was taken and filtered through a 0.22 μm filter membrane.

A further data set is described as follows: physchem. The settings on record: 25 °C, thermodynamic from solid.
The mark [4] stands for this setting: pH 4.5 buffer solution, pH 4.5, aqueous buffer.

Structures can show the parent of a compound that is named as a salt. A value given as a limit tells only on which side of the number the result lay.

Description for physchem: An appropriate amount of the compound of the present invention was weighed, prepared into solutions with different media, respectively, stirred in a constant temperature water bath magnetometer at 25° C. for about 24 hours, and filtered through a 0.22 μm water filter membrane. An appropriate amount of filtrate was diluted to a certain concentration with methanol, and used as a test solution. The concentration of the test solution was determined by HPLC with a UV detector using methanol as a blank control solution.
(2) Reference solution: 5 mg of reference substance was weighed precisely, placed in a 10 mL measuring flask, dissolved with methanol and diluted to scale, and mixed well.
(3) Sample solution: An appropriate amount of sample solution was pipetted, diluted with methanol to about 0.5 mg/mL (determined by the concentration of each sample), and mixed well.

Take `CC(=O)[C@H]1CC[C@H]2[C@@H]3CC[C@H]4C[C@H](O)CC[C@]4(C)[C@H]3CC[C@]12C` [Allopregnanolone, allopregnanolone, reference compound]: the AUC0-last in data set [1] is given as 24.9 ng′ hours/mL. In data set [2], the “human plasma half-life period” value is recorded as “about 45 minutes”.

`CC(=O)[C@H]1CCC2[C@@H]3CCC4CC(OC(=O)C(NC(=O)CN)C(C)C)CC[C@]4(C)C3CC[C@@]21C` (stereo partly drawn) [Compound 2 hydrochloride]: the Purity in data set [3] (0 hour) was determined as 95.00%; in data set [3] (1 hour), 94.59%; in data set [3] (3 hours), 94.50%; in data set [3] (5 hours), 94.05%; in data set [3] (8 hours), 94.33%. This compound showed an AUC0-last in data set [1] of 196.0 ng′ hours/mL. The solubility at 24 h in the data set “physchem” (setting [4]) and in “physchem” (water) was above 10000 µg/mL each time.

`CC(=O)[C@H]1CCC2[C@@H]3CCC4CC(OC(=O)C(NC(=O)C5CCCN5)C(C)C)CC[C@]4(C)C3CC[C@@]21C` (stereo partly drawn) [Compound 4 hydrochloride] gave a solubility at 24 h in “physchem” (water) of 190 µg/mL.

On to `CC(=O)[C@H]1CCC2[C@@H]3CCC4CC(OC(=O)C(NC(=O)C(N)Cc5c[nH]c6ccccc56)C(C)C)CC[C@]4(C)C3CC[C@@]21C` (stereo partly drawn) [Compound 5 hydrochloride], for which the solubility at 24 h in the data set “physchem” (water) was found to be 70 µg/mL.

`CC(=O)[C@H]1CC[C@H]2[C@@H]3CC[C@H]4C[C@H](OC(=O)[C@@H](NC(=O)C(C)N)C(C)C)CC[C@]4(C)[C@H]3CC[C@]12C` (stereo partly drawn) [Compound 6 hydrochloride] showed a solubility at 24 h in the data set “physchem” (water) of 5680 µg/mL.

On to `CC(=O)[C@H]1CC[C@H]2[C@@H]3CC[C@H]4CC(OC(=O)C(NC(=O)C(N)CC(C)C)C(C)C)CC[C@]4(C)[C@H]3CC[C@]12C` (stereo partly drawn) [Compound 7 hydrochloride], for which, in “physchem” (water), the solubility at 24 h was determined as 7380 µg/mL.

`CC(=O)[C@H]1CC[C@H]2[C@@H]3CC[C@H]4C[C@H](OC(=O)[C@H](C)NC(=O)[C@@H](N)C(C)C)CC[C@]4(C)[C@H]3CC[C@]12C` [Compound 10 hydrochloride]: the Purity in data set [3] (0 hour) is given as 99.12%; in data set [3] (1 hour), 99.09%; in data set [3] (3 hours), 99.04%; in data set [3] (5 hours), 98.05%; in data set [3] (8 hours) it was 97.89%.

In the case of `CC(=O)[C@H]1CC[C@H]2[C@@H]3CC[C@H]4C[C@H](OC(=O)[C@H](C)NC(=O)CN)CC[C@]4(C)[C@H]3CC[C@]12C` [Compound 12 hydrochloride], the solubility at 24 h in the data set “physchem” (setting [4]) turned out to be 1910 µg/mL; in “physchem” (water), 2620 µg/mL.

Turning to `CC(=O)[C@H]1CC[C@H]2[C@@H]3CC[C@H]4C[C@H](OC(=O)[C@H](C)OC(=O)[C@@H](N)C(C)C)CC[C@]4(C)[C@H]3CC[C@]12C` [Compound 13 hydrochloride], the solubility at 24 h was determined as 10 µg/mL in “physchem” (setting [4]) and 370 µg/mL in the data set “physchem” (water).

As for `CC(=O)[C@H]1CC[C@H]2[C@@H]3CC[C@H]4C[C@H](OC(=O)CNC(=O)[C@@H](N)C(C)C)CC[C@]4(C)[C@H]3CC[C@]12C` [Compound 14 hydrochloride], the AUC0-last in data set [1] is recorded as 150.2 ng′ hours/mL. Further, the figures for the solubility at 24 h in the data set “physchem” (setting [4]) and in “physchem” (water) were above 50000 µg/mL and above 10000 µg/mL, respectively.

For `CC(=O)[C@H]1CC[C@H]2[C@@H]3CC[C@H]4C[C@H](OC(=O)CNC(=O)CN)CC[C@]4(C)[C@H]3CC[C@]12C` [Compound 15 hydrochloride], in data set [1], the AUC0-last is given as 166.3 ng′ hours/mL. This compound came in with a solubility at 24 h in “physchem” (water) of 1110 µg/mL.

`CC(=O)[C@H]1CC[C@H]2[C@@H]3CC[C@H]4C[C@H](OC(=O)CNC(=O)[C@H](C)N)CC[C@]4(C)[C@H]3CC[C@]12C` [Compound 23 hydrochloride]: the solubility at 24 h in “physchem” (setting [4]) was determined as 970 µg/mL; in the data set “physchem” (water), 640 µg/mL.

Broadly, the solubility is how much of the substance goes into solution per volume.
